Laboratory results reported in patent US20260256792A1, “TREATMENT OF CHRONIC SPONTANEOUS URTICARIA BY ADMINISTERING (R)-2-[3-[4-AMINO-3-(2-FLUORO-4-PHENOXY-PHENYL)PYRAZOLO[3,4-D]PYRIMIDIN-1-YL]PIPERIDINE-1-CARBONYL]-4-METHYL-4-[4-(OXETAN-3-YL)PIPERAZIN-1-YL]PENT-2-ENENITRILE” (priority 2023, published 2026).

Test system: moderate-to-severe chronic spontaneous urticaria (CSU)
Test: Phase 2 CSU study: itch severity score over 7 days (ISS7)
Type: in vivo, human
Settings: for ISS7 Median / ISS7 Mean (SD): End of Study
Description: The study comprises a 12 week, randomized, double-blind, placebo-controlled, multi-center, dose-ranging efficacy and safety phase, followed by a 40 week open label extension (OLE) phase (see FIG. 1). The study consists of three phases and an optional OLE phase. […] Clinically, CSU is characterized by the spontaneous and recurrent appearance of pruritic hives. The proposed primary endpoints were the UAS7 at Week 12 in EU and EU reference countries and the ISS7 in the US. Regardless of where a participant was from, all assessments were the same. The UAS7 score is a composite score containing both the HSS7 and the ISS7. This allowed a global assessment of the two key components of urticaria: hives and itch. […] The UAS is a validated PRO measure. […] The daily UAS scores range from 0 to 6 point/day. […] Patients were to complete the UAS using the e-diary. […] The following secondary endpoints were to be analyzed using the same approach as for the primary endpoint: • Change from baseline in UAS7 at Week 4 • Change from baseline in UAS7 at Week 12 (for US and US reference countries) • Change from baseline in ISS7 at Week 12 (except US and US reference countries) • Change from baseline in HSS7 at Week 12

[1] = 400 mg TID, Prior Omalizumab Use
[2] = ITT Population, 400 mg BID, Week 2
[3] = ITT Population, 400 mg QPM, Week 3
[4] = ITT Population, 400 mg QPM, Week 5
[5] = ITT Population, 400 mg TID, Week 1
[6] = ITT Population, 400 mg TID, Week 12
[7] = ITT population, 400 mg BID, Week 1
[8] = ITT population, 400 mg BID, Week 3
[9] = ITT population, 400 mg BID, Week 4
[10] = ITT population, 400 mg BID, Week 5
[11] = ITT population, 400 mg BID, Week 6
[12] = ITT population, 400 mg BID, Week 7
[13] = ITT population, 400 mg BID, Week 8
[14] = ITT population, 400 mg BID, Week 9
[15] = ITT population, 400 mg BID, Week 10
[16] = ITT population, 400 mg BID, Week 11
[17] = ITT population, 400 mg BID, Week 12
[18] = ITT population, 400 mg QPM, Week 1
[19] = ITT population, 400 mg QPM, Week 2

Q: What does the source list for CC(C)(C=C(C#N)C(=O)N1CCC[C@@H](n2nc(-c3ccc(Oc4ccccc4)cc3F)c3c(N)ncnc32)C1)N1CCN(C2COC2)CC1 [rilzabrutinib, (R)-2-[3-[4-amino-3-(2-fluoro-4-phenoxy-phenyl)pyrazolo[3,4-d]pyrimidin-1-yl]piperidine-1-carbonyl]-4-methyl-4-[4-(oxetan-3-yl)piperazin-1-yl]pent-2-enenitrile]?
A: ISS7 Median (400 mg QPM, Omalizumab-Naïve): 2.00; ISS7 Mean (SD) (400 mg TID, Omalizumab-Naïve): 11.40 (6.11); ISS7 Mean (SD) [1]: 9.50 (6.36); ISS7 Median [1]: 9.50; Imputed non-responder n (%) (ISS7 reduction of 5 points or more) [2]: 2 (4.9) n (%); Non-responder n (%) (ISS7 reduction of 5 points or more) [2]: 19 (46.3) n (%); OR for rilzabrutinib vs. placebo (ISS7 reduction of 5 points or more) [2]: 2.693; RRD (%) for rilzabrutinib vs. placebo (ISS7 reduction of 5 points or more) [2]: 23.6%; Responder n (%) (ISS7 reduction of 5 points or more) [2]: 22 (53.7) n (%); Imputed non-responder n (%) (ISS7 reduction of 5 points or more) [3]: 0 n (%); Non-responder n (%) (ISS7 reduction of 5 points or more) [3]: 20 (52.6) n (%); OR for rilzabrutinib vs. placebo (ISS7 reduction of 5 points or more) [3]: 1.881; RRD (%) for rilzabrutinib vs. placebo (ISS7 reduction of 5 points or more) [3]: 15.9%; Responder n (%) (ISS7 reduction of 5 points or more) [3]: 18 (47.4) n (%); Imputed non-responder n (%) (ISS7 reduction of 5 points or more) [4]: 2 (5.3) n (%); Non-responder n (%) (ISS7 reduction of 5 points or more) [4]: 21 (55.3) n (%); OR for rilzabrutinib vs. placebo (ISS7 reduction of 5 points or more) [4]: 0.781; RRD (%) for rilzabrutinib vs. placebo (ISS7 reduction of 5 points or more) [4]: 6.2%; Responder n (%) (ISS7 reduction of 5 points or more) [4]: 17 (44.7) n (%); Imputed non-responder n (%) (ISS7 reduction of 5 points or more) [5]: 0 n (%); Non-responder n (%) (ISS7 reduction of 5 points or more) [5]: 14 (34.1) n (%); OR for rilzabrutinib vs. placebo (ISS7 reduction of 5 points or more) [5]: 6.428; RRD (%) for rilzabrutinib vs. placebo (ISS7 reduction of 5 points or more) [5]: 42.3%; Responder n (%) (ISS7 reduction of 5 points or more) [5]: 27 (65.9) n (%); Imputed non-responder n (%) (ISS7 reduction of 5 points or more) [6]: 11 (26.8) n (%); Non-responder n (%) (ISS7 reduction of 5 points or more) [6]: 18 (43.9) n (%); OR for rilzabrutinib vs. placebo (ISS7 reduction of 5 points or more) [6]: 1.371; RRD (%) for rilzabrutinib vs. placebo (ISS7 reduction of 5 points or more) [6]: 7.9%; Responder n (%) (ISS7 reduction of 5 points or more) [6]: 23 (56.1) n (%); Imputed non-responder n (%) (ISS7 reduction of 5 points or more) [7]: 1 (2.4) n (%); Non-responder n (%) (ISS7 reduction of 5 points or more) [7]: 21 (51.2) n (%); OR for rilzabrutinib vs. placebo (ISS7 reduction of 5 points or more) [7]: 3.262; RRD (%) for rilzabrutinib vs. placebo (ISS7 reduction of 5 points or more) [7]: 25.5%; Responder n (%) (ISS7 reduction of 5 points or more) [7]: 20 (48.8) n (%); Imputed non-responder n (%) (ISS7 reduction of 5 points or more) [8]: 1 (2.4) n (%); Non-responder n (%) (ISS7 reduction of 5 points or more) [8]: 19 (46.3) n (%); OR for rilzabrutinib vs. placebo (ISS7 reduction of 5 points or more) [8]: 2.451; RRD (%) for rilzabrutinib vs. placebo (ISS7 reduction of 5 points or more) [8]: 21.5%; Responder n (%) (ISS7 reduction of 5 points or more) [8]: 22 (53.7) n (%); Imputed non-responder n (%) (ISS7 reduction of 5 points or more) [9]: 4 (9.8) n (%); Non-responder n (%) (ISS7 reduction of 5 points or more) [9]: 19 (46.3) n (%); RRD (%) for rilzabrutinib vs. placebo (ISS7 reduction of 5 points or more) [9]: 5.6%; Responder n (%) (ISS7 reduction of 5 points or more) [9]: 22 (53.7) n (%); Imputed non-responder n (%) (ISS7 reduction of 5 points or more) [10]: 5 (12.2) n (%); Non-responder n (%) (ISS7 reduction of 5 points or more) [10]: 18 (43.9) n (%); RRD (%) for rilzabrutinib vs. placebo (ISS7 reduction of 5 points or more) [10]: 2.7%; Responder n (%) (ISS7 reduction of 5 points or more) [10]: 23 (56.1) n (%); Imputed non-responder n (%) (ISS7 reduction of 5 points or more) [11]: 4 (9.8) n (%); Non-responder n (%) (ISS7 reduction of 5 points or more) [11]: 20 (48.8) n (%); RRD (%) for rilzabrutinib vs. placebo (ISS7 reduction of 5 points or more) [11]: 2.7%; Responder n (%) (ISS7 reduction of 5 points or more) [11]: 21 (51.2) n (%); Imputed non-responder n (%) (ISS7 reduction of 5 points or more) [12]: 4 (9.8) n (%); Non-responder n (%) (ISS7 reduction of 5 points or more) [12]: 19 (46.3) n (%); OR for rilzabrutinib vs. placebo (ISS7 reduction of 5 points or more) [12]: 1.258; RRD (%) for rilzabrutinib vs. placebo (ISS7 reduction of 5 points or more) [12]: 5.5%; Responder n (%) (ISS7 reduction of 5 points or more) [12]: 22 (53.7) n (%); Imputed non-responder n (%) (ISS7 reduction of 5 points or more) [13]: 5 (12.2) n (%); Non-responder n (%) (ISS7 reduction of 5 points or more) [13]: 16 (39.0) n (%); OR for rilzabrutinib vs. placebo (ISS7 reduction of 5 points or more) [13]: 1.388; RRD (%) for rilzabrutinib vs. placebo (ISS7 reduction of 5 points or more) [13]: 8.3%; Responder n (%) (ISS7 reduction of 5 points or more) [13]: 25 (61.0) n (%); Imputed non-responder n (%) (ISS7 reduction of 5 points or more) [14]: 9 (22.0) n (%); Non-responder n (%) (ISS7 reduction of 5 points or more) [14]: 19 (46.3) n (%); OR for rilzabrutinib vs. placebo (ISS7 reduction of 5 points or more) [14]: 1.233; RRD (%) for rilzabrutinib vs. placebo (ISS7 reduction of 5 points or more) [14]: 5.6%; Responder n (%) (ISS7 reduction of 5 points or more) [14]: 22 (53.7) n (%); Imputed non-responder n (%) (ISS7 reduction of 5 points or more) [15]: 10 (24.4) n (%); Non-responder n (%) (ISS7 reduction of 5 points or more) [15]: 22 (53.7) n (%); OR for rilzabrutinib vs. placebo (ISS7 reduction of 5 points or more) [15]: 0.786; RRD (%) for rilzabrutinib vs. placebo (ISS7 reduction of 5 points or more) [15]: −6.2%; Responder n (%) (ISS7 reduction of 5 points or more) [15]: 19 (46.3) n (%); Imputed non-responder n (%) (ISS7 reduction of 5 points or more) [16]: 9 (22.0) n (%); Non-responder n (%) (ISS7 reduction of 5 points or more) [16]: 19 (46.3) n (%); OR for rilzabrutinib vs. placebo (ISS7 reduction of 5 points or more) [16]: 0.837; RRD (%) for rilzabrutinib vs. placebo (ISS7 reduction of 5 points or more) [16]: −4.5%; Responder n (%) (ISS7 reduction of 5 points or more) [16]: 22 (53.7) n (%); Imputed non-responder n (%) (ISS7 reduction of 5 points or more) [17]: 14 (34.1) n (%); Non-responder n (%) (ISS7 reduction of 5 points or more) [17]: 21 (51.2) n (%); OR for rilzabrutinib vs. placebo (ISS7 reduction of 5 points or more) [17]: 1.063; RRD (%) for rilzabrutinib vs. placebo (ISS7 reduction of 5 points or more) [17]: 1.6%; Responder n (%) (ISS7 reduction of 5 points or more) [17]: 20 (48.8) n (%); Imputed non-responder n (%) (ISS7 reduction of 5 points or more) [18]: 0 n (%); Non-responder n (%) (ISS7 reduction of 5 points or more) [18]: 25 (65.8) n (%); OR for rilzabrutinib vs. placebo (ISS7 reduction of 5 points or more) [18]: 1.855; RRD (%) for rilzabrutinib vs. placebo (ISS7 reduction of 5 points or more) [18]: 12.7%; Responder n (%) (ISS7 reduction of 5 points or more) [18]: 13 (34.2) n (%); Imputed non-responder n (%) (ISS7 reduction of 5 points or more) [19]: 0 n (%); Non-responder n (%) (ISS7 reduction of 5 points or more) [19]: 23 (60.5) n (%); OR for rilzabrutinib vs. placebo (ISS7 reduction of 5 points or more) [19]: 1.662; Responder n (%) (ISS7 reduction of 5 points or more) [19]: 15 (39.5) n (%); Imputed non-responder n (%) (ISS7 reduction of 5 points or more) (ITT population, 400 mg QPM, Week 4): 1 (2.6) n (%)
